Assay results as given in US8975261B2, “Aryloxmethyl cyclopropane derivatives as PDE10 inhibitors” (Merck Sharp & Dohme Corp., priority 2011, dated 2015).

Target: human PDE10A2 (Homo sapiens (Human), UniProt Q9Y233)
Assay: PDE10 fluorescence polarization (IMAP FP) inhibition assay
Assay type: biochemical
Conditions: human PDE10A2 from transfected AD293 cell lysate; FAM-labeled cAMP 50 nM; room temperature; read-out: PDE10A Ki
Experimental: The activity of the compounds in accordance with the present invention as PDE10 inhibitors may be readily determined without undue experimentation using a fluorescence polarization (FP) methodology that is well known in the art (Huang, W., et al., J. Biomol Screen, 2002, 7: 215).
In a typical experiment the PDE10 inhibitory activity of the compounds of the present invention was determined in accordance with the following experimental method. PDE10A2 was amplified from human fetal brain cDNA (Clontech, Mountain View, Calif.) using a forward primer corresponding to nucleotides 56-77 of human PDE10A2 (Accession No. AF127480, Genbank Identifier 4894716), containing a Kozak consensus sequence, and a reverse primer corresponding to nucleotides 2406-2413 of human PDE10A2 (Accession No. AF127480, Genbank Identifier 4894716). Amplification with Easy-A polymerase (Stratagene, La Jolla, Calif.) was 95° C. for 2 minutes followed by thirty three cycles of 95° C. for 40 seconds, 55° C. for 30 seconds, and 72° C. for 2 minutes 48 seconds. Final extension was 72° C. for 7 minutes. The PCR product was TA cloned into pcDNA3.2-TOPO (Invitrogen, Carlsbad, Calif.) according to standard protocol. AD293 cells with 70-80% confluency were transiently transfected with human PDE10A2/pcDNA3.2-TOPO using Lipofectamine 2000 according to manufacturer specifications (Invitrogen, Carlsbad, Calif.). Cells were harvested 48 hours post-transfection and lysed by sonication (setting 3, 10×5 sec pulses) in a buffer containing 20 mM HEPES, 1 mM EDTA and protease inhibitor cocktail (Roche). Lysate was collected by centrifugation at 75,000×g for 20 minutes. Supernatant containing the cytoplasmic fraction was used for evaluation of PDE10A2 activity. The fluorescence polarization assay for cyclic nucleotide phosphodiesterases was performed using an IMAP® FP kit supplied by Molecular Devices, Sunnyvale, Calif. (product #R8139). IMAP® technology has been applied previously to phosphodiesterase assays (Huang, W., et al., J. Biomol Screen, 2002, 7: 215). Assays were performed at room temperature in 384-well microtiter plates with an incubation volume of 20.2 μL. Solutions of test compounds were prepared in DMSO and serially diluted with DMSO to yield 8 μL of each of 10 solutions differing by 3-fold in concentration, at 32 serial dilutions per plate. 100% inhibition is determined using a known PDE10 inhibitor, which can be any compound that is present at 5,000 times its Ki value in the assay described as follows, such as papaverine (see Siuciak, et al. Neuropharmacology (2006) 51:386-396; Becker, et al. Behav Brain Res (2008) 186(2):155-60; Threlfell, et al., J Pharmacol Exp Ther (2009) 328(3):785-795), 2-[4-[pyridin-4-yl-1-(2,2,2-trifluoroethyl)-1H-pyrazol-3-yl]phenoxymethyl]quinoline succinic acid or 2-[4-(1-methyl-4-pyridin-4-yl-1H-pyrazol-3-yl)-phenoxymethyl]quinoline succinic acid (see Schmidt, et al. J Pharmacol Exp Ther (2008) 325:681-690; Threlfell, et al., J Pharmacol Exp Ther (2009) 328(3): 785-795). 0% of inhibition is determined by using DMSO (1% final concentrations). A Labcyte Echo 555 (Labcyte, Sunnyvale, Calif.) is used to dispense 200 nL from each well of the titration plate to the 384 well assay plate. A solution of enzyme (1/7000 dilution from aliquots; sufficient to produce 20% substrate conversion) and a separate solution of FAM-labeled cAMP PDE from Molecular Devices (product #R7506), at a final concentration of 50 nM are made in the assay buffer (10 mM Tris HCl, pH 7.2, 10 mM MgCl2, 0.05% NaN3 0.01% Tween-20, and 1 mM DTT). The enzyme is added to the assay plates by the addition of 10 μL of enzyme solution to each well, shaken to mix and incubated at room temperature for 60 minutes. The substrate is then added to the assay plates by the addition of 10 uL of substrate solution to each well, shaken to mix, and incubated at room temperature for 60 minutes. […]

Chain of human PDE10A2 (Q9Y233 267-1055): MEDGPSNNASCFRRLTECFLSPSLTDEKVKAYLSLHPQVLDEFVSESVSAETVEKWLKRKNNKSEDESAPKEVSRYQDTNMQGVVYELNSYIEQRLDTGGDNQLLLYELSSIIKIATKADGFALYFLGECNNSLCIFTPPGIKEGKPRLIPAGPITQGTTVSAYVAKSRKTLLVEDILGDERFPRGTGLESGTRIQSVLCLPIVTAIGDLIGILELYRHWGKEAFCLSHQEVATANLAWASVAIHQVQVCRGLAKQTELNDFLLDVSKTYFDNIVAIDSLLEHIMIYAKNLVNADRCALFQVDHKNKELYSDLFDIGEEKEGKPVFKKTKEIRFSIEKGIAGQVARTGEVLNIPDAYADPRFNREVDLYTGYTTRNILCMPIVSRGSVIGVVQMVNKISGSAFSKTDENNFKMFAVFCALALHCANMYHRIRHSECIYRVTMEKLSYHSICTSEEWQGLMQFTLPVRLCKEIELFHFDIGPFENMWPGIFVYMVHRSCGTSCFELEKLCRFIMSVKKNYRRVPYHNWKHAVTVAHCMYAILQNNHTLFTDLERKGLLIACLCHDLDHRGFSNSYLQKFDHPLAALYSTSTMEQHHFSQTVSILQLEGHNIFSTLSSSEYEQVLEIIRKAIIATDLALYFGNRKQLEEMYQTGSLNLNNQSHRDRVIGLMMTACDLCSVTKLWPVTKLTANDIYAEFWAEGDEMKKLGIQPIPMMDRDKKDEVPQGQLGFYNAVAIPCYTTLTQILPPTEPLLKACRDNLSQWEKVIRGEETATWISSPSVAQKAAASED

`COc1ccc([C@H]2C[C@@H]2COc2nc(C)ncc2C2=CCC(O)CC2)nc1` (stereo partly drawn) [1-31, 4-(4-{[(1S,2S)-2-(5-methoxypyridin-2-yl)cyclopropyl]methoxy}-2-methylpyrimidin-5-yl)cyclohex-3-en-1-ol] showed a Ki of 0.15 nM.
For `COc1ccc([C@H]2C[C@@H]2COc2nc(C)c(C)nc2-c2cncc(OC)c2)nc1` [1-36, 2-(5-methoxypyridin-3-yl)-3-{[(1S,2S)-2-(5-methoxypyridin-2-yl)cyclopropyl]methoxy}-5,6-dimethylpyrazine], the Ki was 0.22 nM.
`COc1ccc([C@H]2C[C@@H]2COc2ncc(C)cc2-c2cnn3c2CCC3)nc1` [1-39, 3-(2-{[(1S,2S)-2-(5-methoxypyridin-2-yl)cyclopropyl]methoxy}-5-methylpyridin-3-yl)-5,6-dihydro-4H-pyrrolo[1,2-b]pyrazole] showed a Ki of 0.34 nM.
`Cn1cc(-c2cc3ccncc3nc2OC[C@H]2C[C@@H]2c2ccc3ncccc3n2)cn1` [1-42, 2-[(1S,2S)-2-({[3-(1-methyl-1H-pyrazol-4-yl)-1,7-naphthyridin-2-yl]oxy}methyl)cyclo-propyl]-1,5-naphthyridine] was tested, and the Ki was 0.04 nM.
Compound `Cc1ncc(-c2c(C)nn(C)c2C)c(OC[C@H]2C[C@@H]2c2ccc3ccccc3n2)n1` [1-46, 2-[(1S,2S)-2-({[2-methyl-5-(1,3,5-trimethyl-1H-pyrazol-4-yl)pyrimidin-4-yl]oxy}methyl)cyclopropyl]quinoline] has a Ki of 0.002 nM.
`Cc1ncc(-c2cnn(C)c2)c(OC[C@H]2C[C@@H]2c2ccn(C)n2)n1` [1-54, 2-methyl-5-(1-methyl-1H-pyrazol-4-yl)-4-{[(1S,2S)-2-(1-methyl-1H-pyrazol-3-yl)cyclopropyl]methoxy}-pyrimidine] gave a Ki of 3.2 nM.
With `COc1ccc([C@H]2C[C@@H]2COc2nc(C)ncc2-c2nnc(C3CC3)s2)nc1` [1-55, 5-(5-cyclopropyl-1,3,4-thiadiazol-2-yl)-4-{[(1S,2S)-2-(5-methoxypyridin-2-yl)cyclopropyl]methoxy}-2-methylpyrimidine] the Ki was 4.2 nM.
For `COc1ccc([C@H]2C[C@@H]2COc2nc(C)ncc2-c2csc(C)n2)nc1` [1-57, 4-{[(1S,2S)-2-(5-methoxypyridin-2-yl)cyclopropyl]methoxy}-2-methyl-5-(2-methyl-1,3-thiazol-4-yl)pyrimidine], the Ki was 0.78 nM.
With `COc1ccc([C@H]2C[C@@H]2COc2nc(C)ncc2-c2ccc(C)nc2)nc1` [1-73, 4-{[(1S,2S)-2-(5-methoxypyridin-2-yl)cyclopropyl]methoxy}-2-methyl-5-(6-methylpyridin-3-yl)pyrimidine] the Ki was 0.8 nM.
For `COc1ccc([C@H]2C[C@@H]2COc2nc3cccnc3cc2-c2cnn(CCO)c2)nc1` [LL3, 2-[4-(2-{[(1S,2S)-2-(5-methoxypyridin-2-yl)cyclopropyl]methoxy}-1,5-naphthyridin-3-yl)-1H-pyrazol-1-yl]ethanol], the Ki was 0.23 nM.
For `COc1ccc([C@H]2C[C@@H]2COc2nc(C)ncc2-c2cnn(C)c2)nc1` [MM4, 4-{[(1S,2S)-2-(5-methoxypyridin-2-yl)cyclopropyl]methoxy}-2-methyl-5-(1-methyl-1H-pyrazol-4-yl)pyrimidine], the Ki was 0.25 nM.
In the case of `COc1ccc([C@H]2C[C@@H]2COc2nc3cccnc3cc2C2CCCN(C(C)=O)C2)nc1` (stereo partly drawn) [RR4, 1-[3-(2-{[(1S,2S)-2-(5-methoxypyridin-2-yl)cyclopropyl]methoxy}-1,5-naphthyridin-3-yl)piperidin-1-yl]ethanone], the Ki is reported as 2.5 nM.
For `COc1ccc([C@H]2C[C@@H]2COc2nc(C)ncc2CN2CCC(F)(F)C2)nc1` [SS1, 5-[(3,3-difluoropyrrolidin-1-yl)methyl]-4-{[(1S,2S)-2-(5-methoxypyridin-2-yl)cyclopropyl]methoxy}-2-methylpyrimidine], the Ki was 60.8 nM.
Work on `COc1ccc([C@H]2C[C@@H]2COc2nc(C)ncc2/C=C/c2cccnc2)nc1` [TT1, 4-{[(1S,2S)-2-(5-methoxypyridin-2-yl)cyclopropyl]methoxy}-2-methyl-5-[(E)-2-(pyridin-3-yl)ethenyl]pyrimidine] yielded a Ki of 0.6 nM.
